Reference: BindingDB's records for doi:10.1021/jm00128a025 (Roche Research Center, 1989)

How the values were obtained:
[1] = Inhibition of platelet-activating factor receptor binding activity in dog platelets using [3H]-PAF as radioligand.
[2] = as above; remark: listed apart in the source

| SMILES | IC50 [1] [nM] | IC50 [2] [nM] |
| --- | --- | --- |
| O=C(NCCCCc1cccnc1)c1ccc(-c2cccc(O)c2)cc1 | 300 | – |
| COc1cccc(-c2ccc(C(=O)NCCCCc3cccnc3)cc2)c1 | 280 | – |
| COc1ccc(-c2ccc(C(=O)NCCCCc3cccnc3)cc2[N+](=O)[O-])cc1OC | 200 | – |
| CCCc1cc(C(=O)N[C@H](C)CCCc2cccnc2)ccc1-c1ccc(OC)c(OC)c1 | 50 | – |
| COc1ccc(-c2ccc(C(=O)NCCCCc3cccnc3)cc2-c2ccc(OC)cc2)cc1 | 125 | – |
| C[C@H](CCCc1cccnc1)NC(=O)c1ccc(-c2ccccc2)c(-c2ccccc2)c1 | 50 | – |
| C=CCc1cc(C(=O)N[C@H](C)CCCc2cccnc2)ccc1-c1ccc(OC)c(OC)c1 | 80 | – |
| COc1ccc(-c2ccc(C(=O)N[C@H](C)CCCc3cccnc3)cc2Br)cc1OC | 180 | – |
| Cc1ccc(-c2ccc(C(=O)NCCCCc3cccnc3)cc2)cc1C | 200 | – |
| COc1ccc(-c2ccc(C(=S)N[C@H](C)CCCc3cccnc3)cc2)cc1OC | 60 | – |
| COc1ccc(-c2ccc(C(=O)NCCCCc3cccnc3)cc2Br)cc1OC | 220 | – |
| COc1ccc(-c2ccc(C(=O)N[C@H](C)CCCc3cccnc3)cc2[N+](=O)[O-])cc1OC | 200 | – |
| COc1ccc(-c2ccc(C(=O)NCCCCc3cccnc3)cc2)cc1OC | 400 | – |
| COc1ccc(-c2ccc(C(=O)NCCCCc3cccnc3)cc2OC)cc1OC | 300 | – |
| Cc1cccc(-c2ccc(C(=O)NCCCCc3cccnc3)cc2)c1 | 500 | – |
| COc1cccc(-c2ccc(C(=O)N[C@H](C)CCCc3cccnc3)cc2)c1 | 20 | – |
| O=C(NCCCCc1cccnc1)c1ccc(-c2cccc(OC3=CC=CC=CC3)c2)cc1 | – | 700 |
| O=C(NCCCCc1cccnc1)c1ccc(-c2cccc(F)c2)c(F)c1 | 2100 | – |
| CCc1cc(C(=O)N[C@H](C)CCCc2cccnc2)ccc1-c1ccc(OC)c(OC)c1 | 4 | – |
